pIC50: −log10 of the molar value. Like-named read-outs stand apart in the source and are kept apart here.
Tests used:
mTOR = mTOR enzyme inhibition; type: biochemical; details: dose to cause 50% inhibition
Text: (§1) Highlighted are the compounds being made for antitumor testing.

NCl cell panel [1] = experiment: Cytotoxicity, MTT assay; details: read-out: cytotoxieity NCl cell panel IC50
[2] = molecular target: phesphatidylinositol-3-kinase; experiment: PI-3 kinase enzyme inhibition; type: biochemical; details: read-out: P1-3 kinase Inhibition IC50
Text: as §1

C57BL6 mice = experiment: Toxicity in mice, intraperitoneal daily for 4 days (MTD, differential blood counts, serum chemistry); type: in vivo; details: for Maximum tolerated dose: Ip qD x 4, MTD=>10% body weight loss, C57BL6 mice; for Liver toxicity relative to wortmannie: mean percent increase in serum ALT and AST at the MTD or highest dose tested; for Liver toxicity relative to wortmannie / Lymphocyte toxicity relative to wortmannin: wortmannin as 1.0; for Lymphocyte toxicity relative to wortmannin: percent decrease in lymphocyte counts at the MTD or highest dose tested
Text: as §1

NCl cell panel [3] = details: nci cell panel, 48 h
[4] = 2 day MTT assay, mean of 60 cell lines

Row | Structure (SMILES) | pIC50 (mTOR) | pIC50 (NCl cell panel [1]; [4]) | pIC50 ([2]; dose to cause 50% inhibition) | Maximum tolerated dose (C57BL6 mice) [mg/kg] | Liver toxicity relative to wortmannie (C57BL6 mice) | Lymphocyte toxicity relative to wortmannin (C57BL6 mice) | pIC50 (NCl cell panel [3]) | pIC50 (NCl cell panel [1]; Homo sapiens, 60 cell, 48 h) | pIC50 [2]
1 | COC[C@H]1OC(=O)/C(=C/NC(C)C(=O)O)C2=C(O)C(=O)C3=C([C@H](OC(C)=O)C[C@]4(C)C(=O)CC[C@@H]34)[C@]21C (stereo partly drawn) [DJM2-177] | 5.82 | 4.99 | 6.52 | 6 | 0.2 | 2.0 |  |  | 
2 | COC[C@H]1OC(=O)/C(=C/NCC(N)=O)C2=C(O)C(=O)C3=C([C@H](OC(C)=O)C[C@]4(C)C(=O)CC[C@@H]34)[C@]21C [DJM2-190] | < 5.52 | 4.48 | 5.00 |  |  | 0.6 |  |  | 
3 | COC[C@H]1OC(=O)C(=CN(C)Cc2ccccc2)C2=C(O)C(=O)C3=C([C@H](OC(C)=O)C[C@]4(C)C(=O)CC[C@@H]34)[C@]21C [DJM2-181, Acetic acid 4-[(benzylmethylamino)methylene]-6-hydroxy-1α-methoxymethyl-10β,13β-dimethyl-3,7,17-trioxo-1,3,4,7,10,11β,12,13, 14α,15,16,17-dodecahydro-2-oxa-cyclopenca[a]phenanthren-11-yl ester] | < 5.52 |  | 7.00 | > 18 |  |  | 6.15 |  | 
4 | COC[C@H]1OC(=O)c2coc3c2[C@@]1(C)C1=C(C3=O)[C@@H]2CCC(=O)[C@@]2(C)C[C@H]1OC(C)=O [wortmannin, reference compound] |  |  |  |  |  |  |  | 5.05 | 6.52
5 | COC[C@H]1OC(=O)/C(=C/N2CCCC2)C2=C(O)C(=O)C3=C([C@H](OC(C)=O)C[C@]4(C)C(=O)CC[C@@H]34)[C@]21C [DJM2-167, Acetic acid 6-hydroxy-1α-methoxymethyl-10β,13β-dimethyl-3,7,17-trioxo-4-pyrrolidin-1-yl-methylene-1,3,4,7,10,11β,12,13,14α,15,16,17-dodecahydro-2-oxa-cyclopenta[a]phenanthren-11-yl] |  |  | 5.96 |  |  |  | 6.30 |  | 
6 | COC[C@H]1OC(=O)/C(=C/SCc2ccccc2)C2=C(O)C(=O)C3=C([C@H](OC(C)=O)C[C@]4(C)C(=O)CC[C@@H]34)[C@]21C [DJM2-170] | < 5.52 | 5.15 | 6.00 | 9 | 1.7 | 1.1 |  |  | 
